Key:
C57BL/6J mice = assay: Murine lung ischemia-reperfusion injury, edema by wet to dry weight ratio (W/D), C57BL/6J mice; type: in vivo, mouse; conditions: BL6 mice; 10 μg over 30 minutes starting 60 min prior to left hilar clamping for 1 hour; FIGS. 7A and 7B
Experimental: (§1) Mice were anesthetized with ketamine (0.1 mg/gm body weight) and xylazine (0.01 mg/gm) interperitoneally, followed by one-third of the initial dose hourly. Tracheotomy allowed mechanical ventilation (with a tidal volume of 0.4 mL, respiratory rate 120/min, I/E 0.4, PEEP 3 cm H2O, FiO2, 1.0) using a Columbus Instruments Ventilator CIV-101 (Columbus Instruments, Columbus, Ohio, United States of America). The right jugular vein was cannulated for infusion of albumin 2.5% in 0.9% saline, 450 μL/hour by syringe pump (Medfusion 2010i; Medex, Carlsbad, California, United States of America) to maintain hydration. Rectal temperature was monitored and maintained with a heating pad. The left pulmonary hilum was occluded for 1 hour with a microvascular clamp through a left thoracotomy. Reperfusion began with removal of the clamp. Animals were sacrificed at intervals ranging from 15 minutes to 3 hours by cardiectomy, and both lungs were excised. The apical portion of each lung was excised and immediately weighed, then desiccated in a 60° C. oven for 48 hours and re-weighed to determine wet to dry weight ratio (W/D). Remaining lung tissue was flash frozen in liquid nitrogen and stored at −80° C. Lungs excised immediately after sacrifice served as controls.
A further study was performed to compare the effects of pre-treatment with a TLR4 inhibitor. […]

OuJ mice = assay: Murine lung ischemia-reperfusion injury, edema by wet to dry weight ratio (W/D), OuJ mice; type: in vivo, mouse; parameters: dose or concentration left out as unconfirmed; conditions: intravenously over 30 minutes (200 μL of saline) starting 60 minutes before left hilar clamping, FIG. 5A
Experimental: as §1

[1] = system: NF-κB activation mediated through stimulation by Toll-like receptor 2 (TLR2) ligands; assay: NF-κB reporter assay (fluc/β-gal) in HMVECs stimulated with TLR2 ligands; type: cell-based, human; conditions: transfected HMVECs pretreated 1 hour; Pam(3)Cys 25 μg/mL or LTA 1 μg/mL for 8 hours; FIG. 8
Excerpt: FIG. 8 is a bar graph showing the effects of CRX-526 on NF-κB activation mediated through stimulation by Toll-like receptor 2 (TLR2) ligands. Human pulmonary microvascular endothelial cells (HMVECs) were transfected with recombinant first-generation E1, E3-deleted Ad.NF-κB-luciferase and consituitive β-galactosidase vectors so that when NF-κB is activated, the ratio of firefly luciferase (fluc)/β-galactosidase (β-gal) increases. Forty eight hours after transfection, the HMVECs were pretreated for 1 hour with various concentrations of CRX-526 (as shown on the x-axis) and exposed to TLR2 ligands Pam(3)Cys (25 μg/mL, darkly shaded bars) or lipoteichoic acid (LTA; 1 μg/mL, open bars) for 8 hours. Luciferase activity is normalized to β-galactosidase to control for infection efficiency.
(§2) Recombinant, first generation E1, E3-deleted adenovirus serotype 5 vectors were prepared (see Sanlioglu et al., J. Biol. Chem., 276, 30188-30198 (2001)) and HMVECs and AMs were transfected as previously described for epithelial cells. See Wu et al., Respir. Res., 6, 26 (2005).

NF-κB activation [2] = assay: NF-κB reporter assay (fluc/β-gal) in HMVECs stimulated with LPS or TNF; type: cell-based, human; conditions: FIG. 5B
Experimental: FIG. 5B is a bar graph showing the in vitro inhibition of NF-κB activation (based on firefly luciferase (fluc)/β-galactosidase (β-gal) activity) effected by 0.1, 1, 10, and 100 μg concentrations (i.e., Inhib 0.1, Inhib 1, Inhib 10, Inhib 100, respectively) of CRX-526. Fluc/β-gal was measured following stimulation of CRX-526-treated human pulmonary microvascular endothelial cells (HMVECs) with phosphate buffered saline (PBS) only (open bars), 10 ng/mL lipopolysaccharide (LPS) (spotted bars), 5 ng/mL LPS (striped bars), or 0.25 ng/mL tumor necrosis factor (TNF, darkly shaded bars). HMVECs that had not been treated with CRX-526 were used as a control. n=4/group, *p<0.05 compared to other values at same time point by ANOVA.
as §2

NF-κB activation [3] = assay: NF-κB reporter assay (fluc/β-gal) in alveolar macrophages; type: cell-based, mouse; conditions: 1 μg/mL LPS; native OuJ AMs and AMs from chimeric strain P-M+; FIG. 4A
Experimental: FIG. 4A is a bar graph of NF-κB activation (as measured by firefly luciferase (fluc)/β-galactosidase (β-gal) activity) in alveolar macrophages (AMs) from chimeric mice twelve weeks following bone marrow transplant. The AMs were retrieved by bronchoalveolar lavage (BAL) and infected with Ad.NFκBLuc and Ad.CMV-LacZ, then incubated with either phosphate buffered saline (PBS; open bars) or 1 μg/mL lipopolysaccharide (LPS, darkly shaded bars). The observed firefly luciferase/β-galactosidase activity indicated complete replacement of recipient marrow from either chimeric HeJ strain (P+M−) or chimeric OuJ strain (P−M+). P=parenchymal cells, M=marrow-derived cells, +=intact TLR4 (OuJ), −=non-functional TLR4 (HeJ). AMs retrieved from non-irradiated HeJ and OuJ mice served as controls. n=4 experiments/group, p<0.0001.
AMs from HeJ and OuJ mice were harvested by BAL 120 days after BMT. The trachea was cannulated with a tailored 18 gauge catheter (Becton Dickinson, Sandy, Utah, United States of America). BAL was performed by slow tracheal delivery of 4 aliquots (35 μL×body weight in grams) of pre-warmed, sterile, endotoxin-, calcium-, and magnesium-free PBS with 0.2 mM EGTA. Lavage fluid was withdrawn by gentle suction, pooled for each mouse, and centrifuged at 250 g for 5 minutes. […]

Row | NF-κB activation stimulated by TLR2 ligands [1] | Molecule | edema (W/D) for up to 180 min of reperfusion (C57BL/6J mice) | edema (W/D) following 1 hour of ischemia-reperfusion (OuJ mice) | TNF stimulation of NF-κB activation (NF-κB activation [2]; HMVECs, 0.25 ng/mL TNF) | NF-κB activation in HMVECs exposed to LPS (NF-κB activation [2]; LPS 10 or 5 ng/mL, CRX-526 0.1, 1, 10, 100 μg) | increase in luciferase activity (NF-κB activation [3])
1 | reduced NF-κB activation | CCCCCCCCCCC[C@H](CC(=O)N[C@H]1[C@H](OC[C@H](NC(=O)C[C@@H](CCCCCCCCCCC)OC(=O)CCCCC)C(=O)O)O[C@H](CO)[C@@H](OP(=O)(O)O)[C@@H]1OC(=O)C[C@@H](CCCCCCCCCCC)OC(=O)CCCCC)OC(=O)CCCCC [CRX-526] | little if any edema | prevented edema | no impact | prevented NF-κB activation | –
2 | – | lipopolysaccharide [LPS] | – | – | – | – | approximately 60 fold
